According to ChEMBL document CHEMBL3352097, “Small molecule inhibitors targeting activator protein 1 (AP-1)” (J Med Chem, 2014):
One block for each compound: values may come before it.

Tests used:
[1] = target: T1, Transcription factor Jun (Homo sapiens, UniProt P05412); test: Inhibition of AP-1-mediated transcriptional activation in HEK293 cells by luciferase reporter gene assay; format: cell-based
[2] = target: T1, Transcription factor Jun; test: Inhibition of AP-1 (unknown origin) by FRET assay
[3] = target: T1, Transcription factor Jun; test: Inhibition of AP-1-mediated transcriptional activation in human Jurkat cells by luciferase reporter gene assay; format: cell-based
[4] = target: Nuclear factor NF-kappa-B complex (Homo sapiens, UniProt Q00653+P19838+Q04206); test: Inhibition of NF-kappaB-mediated transcriptional activation in human Jurkat cells by luciferase reporter gene assay; format: cell-based
[5] = target: Transcription factor Jun (Mus musculus) (UniProt P05627); test: Inhibition of AP-1-mediated transcriptional activation in lipopolysaccharide-stimulated mouse RAW 264.7 cells assessed ratio of luciferase activity normalized to Renilla luciferase activity by luciferase reporter gene assay
[6] = organism: Gallus gallus; test: Antiangiogenic activity in chicken embryo assessed as inhibition of neovascularization at 10 ug; format: functional
[7] = target: T1, Transcription factor Jun; test: Inhibition of AP-1-mediated transcriptional activation in human HeLa cells at 1 ug/ml; format: cell-based
[8] = target: T1, Transcription factor Jun; test: Inhibition of AP-1-mediated transcriptional activation in human HeLa cells at 10 ug/ml; format: cell-based
[9] = target: T2, Transcription factor AP1 (Homo sapiens, UniProt P01100+P05412); test: Inhibition of Fos-Jun dimer formation (unknown origin); format: protein-complex assay
[10] = target: T2, Transcription factor AP1; test: Inhibition of Fos-Jun dimer formation (unknown origin) by EMSA method; format: protein-complex assay
[11] = organism: Rattus norvegicus; test: Antiinflammatory activity in adjuvant-induced arthritis rat model assessed as reduction in swelling in noninjected foot; format: functional
[12] = target: T1, Transcription factor Jun; test: Inhibition of UVB-induced AP-1 activation (unknown origin) by cell-based assay
[13] = target: Transcription factor Jun (Rattus norvegicus, UniProt P17325); test: Inhibition of AP-1-mediated collagenase production in IL1alpha-stimulated Lewis rat synovial cells
[14] = target: T1, Transcription factor Jun; test: Inhibition of AP-1 (unknown origin) binding to AP-1 oligonucleotide by gel shift assay

T1 sequence (P05412 whole entry): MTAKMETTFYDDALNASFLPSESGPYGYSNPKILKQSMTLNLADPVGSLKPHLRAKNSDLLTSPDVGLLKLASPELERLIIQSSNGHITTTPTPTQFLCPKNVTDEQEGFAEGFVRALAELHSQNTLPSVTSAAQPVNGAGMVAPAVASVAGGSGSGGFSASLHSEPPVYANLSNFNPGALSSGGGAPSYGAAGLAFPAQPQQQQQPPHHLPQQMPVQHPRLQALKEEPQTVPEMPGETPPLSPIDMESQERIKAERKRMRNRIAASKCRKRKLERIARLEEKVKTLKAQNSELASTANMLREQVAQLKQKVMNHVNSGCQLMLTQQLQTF
T2 sequence (P05412 whole entry): as above
T2 sequence (P01100 whole entry): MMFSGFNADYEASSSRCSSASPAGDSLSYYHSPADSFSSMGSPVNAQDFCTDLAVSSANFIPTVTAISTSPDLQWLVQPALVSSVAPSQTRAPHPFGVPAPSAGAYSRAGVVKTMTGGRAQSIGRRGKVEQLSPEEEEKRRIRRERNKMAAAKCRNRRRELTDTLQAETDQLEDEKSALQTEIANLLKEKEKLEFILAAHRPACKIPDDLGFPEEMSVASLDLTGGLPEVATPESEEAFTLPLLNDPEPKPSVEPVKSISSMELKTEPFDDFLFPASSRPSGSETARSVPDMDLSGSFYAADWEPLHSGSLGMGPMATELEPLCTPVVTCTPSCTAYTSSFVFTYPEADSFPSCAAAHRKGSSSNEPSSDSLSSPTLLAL
Sequence of Nuclear factor NF-kappa-B complex (P19838 1-433 limits assumed): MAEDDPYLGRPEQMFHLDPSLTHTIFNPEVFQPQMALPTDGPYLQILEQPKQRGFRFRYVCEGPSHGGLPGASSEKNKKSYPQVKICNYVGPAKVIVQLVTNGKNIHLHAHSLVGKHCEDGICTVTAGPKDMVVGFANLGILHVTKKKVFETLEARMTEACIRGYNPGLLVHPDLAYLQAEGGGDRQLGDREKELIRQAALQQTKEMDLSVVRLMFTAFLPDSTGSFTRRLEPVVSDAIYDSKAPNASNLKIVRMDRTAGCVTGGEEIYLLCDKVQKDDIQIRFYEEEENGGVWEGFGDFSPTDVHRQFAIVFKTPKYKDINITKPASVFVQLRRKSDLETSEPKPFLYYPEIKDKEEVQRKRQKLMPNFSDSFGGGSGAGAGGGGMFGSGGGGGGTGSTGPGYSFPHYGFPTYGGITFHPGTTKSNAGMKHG
Sequence of Nuclear factor NF-kappa-B complex (Q00653 1-454 limits assumed): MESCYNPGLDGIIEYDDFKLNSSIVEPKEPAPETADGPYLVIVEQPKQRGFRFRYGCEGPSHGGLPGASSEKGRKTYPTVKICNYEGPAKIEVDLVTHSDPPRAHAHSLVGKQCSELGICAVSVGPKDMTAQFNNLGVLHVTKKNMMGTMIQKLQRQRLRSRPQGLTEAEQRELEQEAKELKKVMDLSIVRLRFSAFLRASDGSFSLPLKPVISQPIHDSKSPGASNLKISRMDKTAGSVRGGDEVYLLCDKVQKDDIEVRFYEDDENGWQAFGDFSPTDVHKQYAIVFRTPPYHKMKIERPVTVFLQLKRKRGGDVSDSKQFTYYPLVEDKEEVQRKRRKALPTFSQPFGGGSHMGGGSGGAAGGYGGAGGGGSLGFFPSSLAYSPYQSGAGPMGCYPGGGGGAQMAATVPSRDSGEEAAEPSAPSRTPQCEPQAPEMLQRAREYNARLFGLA
Sequence of Nuclear factor NF-kappa-B complex (Q04206 whole entry): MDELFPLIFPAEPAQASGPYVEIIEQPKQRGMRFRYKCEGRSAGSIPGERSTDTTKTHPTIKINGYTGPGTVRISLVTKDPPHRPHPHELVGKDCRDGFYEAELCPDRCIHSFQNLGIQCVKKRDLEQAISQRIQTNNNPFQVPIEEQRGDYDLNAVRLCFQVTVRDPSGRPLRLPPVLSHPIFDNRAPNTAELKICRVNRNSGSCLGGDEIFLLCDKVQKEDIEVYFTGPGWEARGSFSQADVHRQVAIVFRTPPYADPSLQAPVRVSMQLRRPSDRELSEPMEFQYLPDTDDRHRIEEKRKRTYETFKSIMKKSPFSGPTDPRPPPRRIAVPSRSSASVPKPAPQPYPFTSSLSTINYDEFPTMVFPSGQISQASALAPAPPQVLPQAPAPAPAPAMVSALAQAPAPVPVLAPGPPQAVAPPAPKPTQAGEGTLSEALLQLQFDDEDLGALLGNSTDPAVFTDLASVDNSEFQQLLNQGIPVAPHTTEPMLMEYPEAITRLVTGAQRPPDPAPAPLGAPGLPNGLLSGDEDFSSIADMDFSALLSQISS
Sequence of Transcription factor Jun (Mus musculus) (P05627 whole entry): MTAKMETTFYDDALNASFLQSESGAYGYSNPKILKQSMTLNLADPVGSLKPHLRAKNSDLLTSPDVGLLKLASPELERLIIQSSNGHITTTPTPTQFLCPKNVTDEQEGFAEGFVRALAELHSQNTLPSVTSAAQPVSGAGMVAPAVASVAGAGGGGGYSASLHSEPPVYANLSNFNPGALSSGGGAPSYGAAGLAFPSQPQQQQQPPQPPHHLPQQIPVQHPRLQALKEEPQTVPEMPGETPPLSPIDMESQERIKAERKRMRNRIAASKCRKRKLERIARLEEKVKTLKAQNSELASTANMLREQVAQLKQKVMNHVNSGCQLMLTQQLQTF
Sequence of Transcription factor Jun (Rattus norvegicus, UniProt P17325) (P17325 whole entry): as the sequence (P05627 whole entry) above, with S48N, A193T counted along it

Structure (SMILES): CNc1nc(C)c(-c2nc3ccccc3c(=O)n2-c2ccc(Cl)cc2)s1
IC50 [1]: 1.2 µM

Structure (SMILES): COC1=C(C)[C@@H]2CC(=O)O[C@@H]3C[C@H]4[C@H](C)[C@@H](O)[C@H](O)C(=O)[C@]4(C)[C@@H](C1=O)[C@@]32C [NOTHOSPONDIN]
EC50 [2]: 0.13 µM

Structure (SMILES): CC(=O)c1ccc(-n2c(-c3cc(-c4ccncc4)c(N4CCOCC4)s3)nc3ccccc3c2=O)cc1
IC50 [1]: 5 µM

Structure (SMILES): COc1cc(/C=C/C(=O)/C=C(O)/C=C/c2cc(OC)c(O)c([N+](=O)[O-])c2)cc([N+](=O)[O-])c1O
inhibition (INH) [6]: 68%

Structure (SMILES): O=C(Nc1cc(C(F)(F)F)cc(C(F)(F)F)c1)c1cc(Br)ccc1O
inhibition [7]: 48.4% | inhibition [8]: 91.2%

Structure (SMILES): COc1cc(CC(C)C(C)Cc2ccc(O)c(OC)c2)ccc1O (stereo not given) [DIHYDROGUAIARETIC ACID]
IC50 [9]: 0.21 µM

Structure (SMILES): CC(=O)c1cnc(NN2C(=O)C=C(C)C2=O)nc1C(F)(F)F
IC50 [3]: 4.4 µM

Structure (SMILES): CC(Cc1ccc(O)c(O)c1)C(C)Cc1ccc(O)c(O)c1 (stereo not given) [NORDIHYDROGUAIARETIC ACID]
IC50 [9]: 0.0079 µM

Structure (SMILES): CC1(C)CC[C@]2(C(=O)O)CC[C@]3(C)C(=CC[C@@H]4[C@@]5(C)CC[C@H](O[C@@H]6O[C@H](C(=O)O)[C@@H](O)[C@H](O[C@@H]7OC[C@H](O)[C@H](O)[C@H]7O)[C@H]6O)C(C)(C)[C@@H]5CC[C@]43C)[C@@H]2C1
IC50 [10]: 130 µM

Structure (SMILES): CCOC(=O)c1cnc(-c2ccccc2)nc1NN1C(=O)C=C(C)C1=O
IC50 [4]: 0.1 µM | IC50 [3]: 0.1 µM

Structure (SMILES): C[C@@]12CC[C@@H]3[C@@](CC1=O)(C2)[C@@H](O)C[C@H]1[C@@]3(C)[C@@H](O)CC[C@@]1(C)C(=O)O
Ratio [5]: 2.98

Structure (SMILES): C[C@@H]1C[C@H]2[C@@H]3CCC4=CC(=O)C=C[C@]4(C)[C@@]3(F)[C@@H](O)C[C@]2(C)[C@@]1(O)C(=O)CO
Ratio [5]: 2.33

Structure (SMILES): CCOC(=O)c1cnc(NN2C(=O)C=C(C)C2=O)nc1-c1ccc(C)s1
IC50 [3]: 0.045 µM

Structure (SMILES): CCOC(=O)c1cnc(N(C)N2C(=O)C=C(C)C2=O)nc1C(F)(F)F
IC50 [3]: 0.3 µM

Structure (SMILES): Cc1ccccc1-n1c(-c2sc(Nc3ccccc3)nc2C)nc2ccccc2c1=O
IC50 [1]: 5.5 µM

Structure (SMILES): C[C@@]12CC[C@@H]3[C@@](CC[C@H]4[C@@]3(C)CCC[C@@]4(C)C(=O)O)(CC(=O)O1)C2
Ratio [5]: 2.38

Structure (SMILES): CCCc1c(C(=O)O)c(O)cc2c1C(=O)c1c(O)cccc1C2=O
IC50 [13]: 60 µM | IC50 [14]: 100 µM

Structure (SMILES): Cc1cc(C(=O)Nc2ccc(C(F)(F)F)cc2C(F)(F)F)nc(Cl)n1
IC50 [3]: > 10 µM

Structure (SMILES): C[C@@]12CC[C@@H]3[C@@](C/C1=N\O)(C2)[C@H](O)C[C@H]1[C@@]3(C)[C@@H](O)CC[C@@]1(C)C(=O)O
Ratio [5]: 2.69

Structure (SMILES): O=C(Nc1cc(C(F)(F)F)cc(C(F)(F)F)c1)c1ccc(Cl)nn1
IC50 [4]: 1.7 µM | IC50 [3]: 1.7 µM

Now from value to compound, other results behind:

IC50 [3]: 0.76 µM
Structure (SMILES): CC1=CC(=O)N(Nc2ncc(-c3coc(C)n3)c(-c3cccs3)n2)C1=O

IC50 [4]: 0.4 µM
Structure (SMILES): O=C(Nc1cc(C(F)(F)F)cc(C(F)(F)F)c1)c1cnc(F)nc1C(F)(F)F

Ratio [5]: 2.85
Structure (SMILES): CC1=C[C@@]2(CC#N)CC[C@H]3[C@@](C)(CCC[C@@]3(C)C(=O)O)[C@@H]2CC1

Ratio [5]: 2.22
Structure (SMILES): CC1=CC[C@@H]2[C@](CC#N)(CC[C@H]3[C@@]2(C)CCC[C@@]3(C)C(=O)O)C1

IC50 [3]: 10 µM
Structure (SMILES): O=C(c1cnc(Cl)nc1C(F)(F)F)N1COCc2ccc(C(F)(F)F)cc21

IC50 [4]: 4 µM | IC50 [3]: 4 µM
Structure (SMILES): O=C(Nc1cc(C(F)(F)F)cc(C(F)(F)F)c1)c1cnc(Cl)cn1

IC50 [3]: 0.008 µM
Structure (SMILES): COc1cccc2nc(-c3cccs3)nc(NN3C(=O)C=C(C)C3=O)c12 [AS-602868]
inhibition (INH) [11]: 65%

IC50 [12]: 29 µM
Structure (SMILES): COC(=O)C1=CO[C@@H](O[C@@H]2O[C@H](CO)[C@@H](O)[C@H](O)[C@H]2O)[C@H]2[C@@H]1[C@@H]1O[C@@H]1[C@]2(O)C(=O)O/C=C(\C(=O)O)c1ccc(O)c(OC)c1

Ratio [5]: 1.88
Structure (SMILES): C[C@@]12CC[C@@H]3[C@@](CC[C@H]4[C@@]3(C)CCC[C@@]4(C)C(=O)O)(COC1=O)C2

IC50 [3]: 0.003 µM
Structure (SMILES): COc1ccc2nc(-c3cccs3)nc(NN3C(=O)C=C(C)C3=O)c2c1

IC50 [3]: 2 µM
Structure (SMILES): CCOC(=O)c1cnc(NN2C(=O)C=C(C)C2=O)nc1C(F)(F)F

IC50 [10]: 4 µM
Structure (SMILES): C[C@H]1[C@H](C)CC[C@]2(COC(=O)c3ccccc3C(=O)O)CC[C@]3(C)C(=CC[C@@H]4[C@@]5(C)CC[C@H](OC(=O)c6ccccc6C(=O)O)C(C)(C)[C@@H]5CC[C@]43C)[C@H]12

IC50 [1]: 1.2 µM
Structure (SMILES): Cc1nc(Nc2ccc(Cl)cc2)sc1-c1nc2ccccc2c(=O)n1-c1ccc(Cl)cc1

IC50 [3]: 0.5 µM
Structure (SMILES): Cc1nc(Cl)ncc1C(=O)Nc1cc(Cl)cc(Cl)c1
